Reference: ChEMBL document CHEMBL4396974, “Synthesis and evaluation of a novel quinoline-triazole analogs for antitubercular properties via molecular hybridization approach” (Bioorg Med Chem Lett, 2019)

Experiments:
Settings in all cases: read-out: INH
[1] = Cytotoxicity against human PANC1 cells at 10 uM measured after 48 hrs by sulforhodamine B assay relative to control; format: cell-based, PANC-1
[2] = Cytotoxicity against human SKOV3 cells at 10 uM measured after 48 hrs by sulforhodamine B assay relative to control; format: cell-based, SK-OV-3
[3] = Cytotoxicity against human HeLa cells at 10 uM measured after 48 hrs by sulforhodamine B assay relative to control; format: cell-based
[4] = Cytotoxicity against human PC3 cells at 10 uM measured after 48 hrs by sulforhodamine B assay relative to control; format: cell-based, PC-3
[5] = Cytotoxicity against human HEK293 cells at 10 uM measured after 48 hrs by sulforhodamine B assay relative to control; format: cell-based
[6] = Cytotoxicity against human PC3 cells at 2 uM measured after 48 hrs by sulforhodamine B assay relative to control; format: cell-based, PC-3
[7] = Cytotoxicity against human HEK293 cells at 2 uM measured after 48 hrs by sulforhodamine B assay relative to control; format: cell-based
[8] = Cytotoxicity against human HeLa cells at 2 uM measured after 48 hrs by sulforhodamine B assay relative to control; format: cell-based
[9] = Cytotoxicity against human SKOV3 cells at 2 uM measured after 48 hrs by sulforhodamine B assay relative to control; format: cell-based, SK-OV-3
[10] = Cytotoxicity against human PANC1 cells at 2 uM measured after 48 hrs by sulforhodamine B assay relative to control; format: cell-based, PANC-1

| Structure (SMILES) | cytotoxicity at 48 h, 10 µM [1] [%] | cytotoxicity at 48 h, 10 µM [2] [%] | cytotoxicity at 48 h, 10 µM [3] [%] | cytotoxicity at 48 h, 10 µM [4] [%] | cytotoxicity at 48 h, 10 µM [5] [%] | cytotoxicity at 48 h, 2 µM [6] [%] | cytotoxicity at 48 h, 2 µM [7] [%] | cytotoxicity at 48 h, 2 µM [8] [%] | cytotoxicity at 48 h, 2 µM [9] [%] | cytotoxicity at 48 h, 2 µM [10] [%] |
| --- | --- | --- | --- | --- | --- | --- | --- | --- | --- | --- |
| COc1nc2ccc(Br)cc2cc1C(c1ccccc1)n1cc(-c2ccc(Br)cc2)nn1 (stereo not given) | 10.4 | 13.4 | 6.92 | 7.43 | 6.28 |  |  |  |  |  |
| CCCCCCc1cn(C(c2ccccc2)c2cc3cc(Br)ccc3nc2OC)nn1 (stereo not given) | 6.08 | 7.17 | -0.97 | 2.32 | -3.17 |  |  |  |  |  |
| CCCCCCCCc1cn(C(c2ccccc2)c2cc3cc(Br)ccc3nc2OC)nn1 (stereo not given) | 12.1 | 2.06 | 0.1 | 2.27 | 14.6 |  |  |  |  |  |
| COc1nc2ccc(Br)cc2cc1C(c1ccccc1)n1cc(-c2ccc(F)cc2)nn1 (stereo not given) | 14.9 | 14.3 | 4.27 | 16.4 | 4.04 |  |  |  |  |  |
| COc1nc2ccc(Br)cc2cc1C(c1ccccc1)n1cc(C2CC2)nn1 (stereo not given) | 21.8 | 3.52 | -5.84 | 22.6 | 8.22 |  |  |  |  |  |
| CCOC(=O)c1cn(C(c2ccccc2)c2cc3cc(Br)ccc3nc2OC)nn1 (stereo not given) | 15.4 | 2.01 | -3.67 | 16.1 | 2 |  |  |  |  |  |
| CCCCCc1cn(C(c2ccccc2)c2cc3cc(Br)ccc3nc2OC)nn1 (stereo not given) | 5.07 | 10.5 | -9.81 | 11.4 | -2 |  |  |  |  |  |
| COc1nc2ccc(Br)cc2cc1C(c1ccccc1)n1cc(-c2cccc(F)c2)nn1 (stereo not given) | 15.5 | 12.7 | 9.04 | 14.6 | 6.84 |  |  |  |  |  |
| COc1nc2ccc(Br)cc2cc1C(c1ccccc1)n1cc(-c2ccccc2F)nn1 (stereo not given) | 14.7 | 7.33 | 14.1 | 13.4 | 3.97 |  |  |  |  |  |
| COc1nc2ccc(Br)cc2cc1C(c1ccccc1)n1cc(-c2ccc(OC(F)(F)F)cc2)nn1 (stereo not given) | 11.7 | 14.8 | -2.24 | 21.6 | 5.8 |  |  |  |  |  |
| COc1cccc2c1C(=O)c1c(O)c3c(c(O)c1C2=O)C[C@@](O)(C(=O)CO)C[C@@H]3O[C@H]1C[C@H](N)[C@H](O)[C@H](C)O1 [DOXORUBICIN] |  |  |  |  |  | 86.7 | 75.6 | 74.1 | 83.3 | 96.1 |
| COc1nc2ccc(Br)cc2cc1C(c1ccccc1)n1cc(CO)nn1 (stereo not given) | 15 | 3.23 | 0.25 | 4.65 | 11.5 |  |  |  |  |  |
| COc1nc2ccc(Br)cc2cc1C(c1ccccc1)n1cc(-c2ccccc2)nn1 (stereo not given) | 30.1 | 13.7 | 13.9 | 5.97 | 8.25 |  |  |  |  |  |
| CCCCCCCc1cn(C(c2ccccc2)c2cc3cc(Br)ccc3nc2OC)nn1 (stereo not given) | 16.6 | 10.5 | 9.7 | 4.42 | 0.17 |  |  |  |  |  |
| COc1nc2ccc(Br)cc2cc1C(c1ccccc1)n1cc(-c2ccccc2C(F)(F)F)nn1 (stereo not given) | 11.4 | 9.55 | -1.3 | 17.4 | 14.3 |  |  |  |  |  |
| CCCCc1cn(C(c2ccccc2)c2cc3cc(Br)ccc3nc2OC)nn1 (stereo not given) | 5.46 | 11.1 | -2.87 | 5.54 | -3.47 |  |  |  |  |  |
| COc1nc2ccc(Br)cc2cc1C(c1ccccc1)n1cc(CCCO)nn1 (stereo not given) | 25.5 | 13.8 | 11.3 | 14.7 | 27.4 |  |  |  |  |  |
| COc1nc2ccc(Br)cc2cc1C(c1ccccc1)n1cc(CCO)nn1 (stereo not given) | 19.8 | 8.46 | 0.85 | 15.5 | 4.54 |  |  |  |  |  |
| CCCc1cn(C(c2ccccc2)c2cc3cc(Br)ccc3nc2OC)nn1 (stereo not given) | 11.3 | 11.2 | -2.25 | 8.3 | 0.85 |  |  |  |  |  |
| COc1nc2ccc(Br)cc2cc1C(c1ccccc1)n1cc(CCCCCO)nn1 (stereo not given) | 19.6 | 8.69 | 1.08 | 12.9 | 7.96 |  |  |  |  |  |
